Assay results from US11878970B2, “Allosteric chromenone inhibitors of phosphoinositide 3-kinase (PI3K) for the treatment of disease” (Petra Pharma Corporation, priority 2021, dated 2024).

Experiments:
[1] = biological target: T1, PI3K-α (PIK3CA) wild-type (WT), p110α/p85α complex (Homo sapiens, UniProt P42336); assay: PI3K-alpha kinase (PIK3CA) biochemical activity, ADP-Glo, wild-type; conditions: Soy PI lipid substrate
T1 construct: Recombinant, catalytically active human full length PIK3KA Wild-type and H1047R mutant; 6×His (N); purchased EMD Millipore Sigma 14-602M
How it was run: (§1)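 ADP formation measured by ADP-Glo luminescence after reaction at 27 °C to about 10% ATP turnover, using 20 uM ATP, 50 uM PIP2diC8 or soy PI lipid, HEPES pH 7.4 with MgCl2. Enzyme (1-5 nM WT or H1047R p110α/p85α) and compound preincubated 1 h first; 10-point 1:3 curves fitted four-parameter for IC50.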

[2] = biological target: T2, PI3K-α (PIK3CA) H1047R mutant, p110α/p85α complex (Homo sapiens, UniProt P42336, H1047R); assay: PI3K-alpha kinase (PIK3CA) biochemical activity, ADP-Glo, H1047R mutant; conditions: Soy PI lipid substrate
T2 construct: Recombinant, catalytically active human full length PIK3KA Wild-type and H1047R mutant; 6×His (N); purchased EMD Millipore Sigma 14-792M
T2 sequence (P42336 whole entry H1047R): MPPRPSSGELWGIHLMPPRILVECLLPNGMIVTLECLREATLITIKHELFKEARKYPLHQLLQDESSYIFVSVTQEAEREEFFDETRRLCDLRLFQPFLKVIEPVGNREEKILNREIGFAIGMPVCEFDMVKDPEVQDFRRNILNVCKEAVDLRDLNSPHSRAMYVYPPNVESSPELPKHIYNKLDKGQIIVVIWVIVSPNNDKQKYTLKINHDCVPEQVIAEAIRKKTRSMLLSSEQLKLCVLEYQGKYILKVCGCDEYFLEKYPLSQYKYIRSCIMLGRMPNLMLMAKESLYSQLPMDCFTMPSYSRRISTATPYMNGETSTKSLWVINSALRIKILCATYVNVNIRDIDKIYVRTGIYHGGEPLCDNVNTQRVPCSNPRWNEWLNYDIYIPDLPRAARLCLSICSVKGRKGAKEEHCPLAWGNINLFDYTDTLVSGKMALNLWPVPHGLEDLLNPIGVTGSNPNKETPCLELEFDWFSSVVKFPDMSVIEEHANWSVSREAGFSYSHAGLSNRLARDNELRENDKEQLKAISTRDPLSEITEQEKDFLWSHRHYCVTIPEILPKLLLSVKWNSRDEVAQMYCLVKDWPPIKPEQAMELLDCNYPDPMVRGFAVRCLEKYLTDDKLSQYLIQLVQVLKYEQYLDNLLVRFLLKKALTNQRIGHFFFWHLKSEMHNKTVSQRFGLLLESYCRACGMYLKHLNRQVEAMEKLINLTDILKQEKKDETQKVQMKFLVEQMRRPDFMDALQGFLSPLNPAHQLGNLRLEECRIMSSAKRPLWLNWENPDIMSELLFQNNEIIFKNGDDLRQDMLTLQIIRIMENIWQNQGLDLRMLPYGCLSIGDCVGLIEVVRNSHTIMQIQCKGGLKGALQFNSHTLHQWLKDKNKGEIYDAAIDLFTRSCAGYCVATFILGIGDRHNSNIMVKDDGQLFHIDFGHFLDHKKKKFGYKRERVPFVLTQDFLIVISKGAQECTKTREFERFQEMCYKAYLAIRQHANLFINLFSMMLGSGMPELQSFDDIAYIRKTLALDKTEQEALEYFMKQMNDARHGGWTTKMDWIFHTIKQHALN
T2 sequence (P27986 whole entry partner): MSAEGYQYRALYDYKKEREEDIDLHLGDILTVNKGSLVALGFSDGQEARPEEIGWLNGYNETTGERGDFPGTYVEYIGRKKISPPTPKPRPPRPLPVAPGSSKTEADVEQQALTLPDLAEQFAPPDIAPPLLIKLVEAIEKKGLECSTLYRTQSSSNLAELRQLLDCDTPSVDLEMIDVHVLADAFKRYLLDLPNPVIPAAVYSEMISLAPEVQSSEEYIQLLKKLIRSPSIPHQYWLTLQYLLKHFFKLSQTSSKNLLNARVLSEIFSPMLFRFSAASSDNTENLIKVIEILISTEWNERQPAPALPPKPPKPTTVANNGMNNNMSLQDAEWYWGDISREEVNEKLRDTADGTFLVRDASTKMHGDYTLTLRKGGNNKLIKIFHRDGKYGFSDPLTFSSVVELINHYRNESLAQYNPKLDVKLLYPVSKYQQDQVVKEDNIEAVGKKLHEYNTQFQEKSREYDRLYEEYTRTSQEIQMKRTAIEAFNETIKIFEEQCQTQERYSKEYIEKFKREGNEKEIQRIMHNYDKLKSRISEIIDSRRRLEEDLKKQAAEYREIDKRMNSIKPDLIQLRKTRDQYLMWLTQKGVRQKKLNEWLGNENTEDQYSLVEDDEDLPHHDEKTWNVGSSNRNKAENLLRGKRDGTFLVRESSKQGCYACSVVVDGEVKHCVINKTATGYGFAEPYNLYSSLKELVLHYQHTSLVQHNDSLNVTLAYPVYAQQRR
How it was run: as §1

[3] = biological target: PI3K-α (PIK3CA) in MDA-MB-453 cells (Homo sapiens, UniProt P42336); assay: PI3K-alpha kinase (PIK3CA) in vitro cell based assay, MDA-MB-453 cells, SureFire Ultra AlphaLisa; conditions: read-out: PI3K-α (PIK3CA) in vitro cell based assay IC50
Sequence of PI3K-α (PIK3CA) in MDA-MB-453 cells (P27986 2-724): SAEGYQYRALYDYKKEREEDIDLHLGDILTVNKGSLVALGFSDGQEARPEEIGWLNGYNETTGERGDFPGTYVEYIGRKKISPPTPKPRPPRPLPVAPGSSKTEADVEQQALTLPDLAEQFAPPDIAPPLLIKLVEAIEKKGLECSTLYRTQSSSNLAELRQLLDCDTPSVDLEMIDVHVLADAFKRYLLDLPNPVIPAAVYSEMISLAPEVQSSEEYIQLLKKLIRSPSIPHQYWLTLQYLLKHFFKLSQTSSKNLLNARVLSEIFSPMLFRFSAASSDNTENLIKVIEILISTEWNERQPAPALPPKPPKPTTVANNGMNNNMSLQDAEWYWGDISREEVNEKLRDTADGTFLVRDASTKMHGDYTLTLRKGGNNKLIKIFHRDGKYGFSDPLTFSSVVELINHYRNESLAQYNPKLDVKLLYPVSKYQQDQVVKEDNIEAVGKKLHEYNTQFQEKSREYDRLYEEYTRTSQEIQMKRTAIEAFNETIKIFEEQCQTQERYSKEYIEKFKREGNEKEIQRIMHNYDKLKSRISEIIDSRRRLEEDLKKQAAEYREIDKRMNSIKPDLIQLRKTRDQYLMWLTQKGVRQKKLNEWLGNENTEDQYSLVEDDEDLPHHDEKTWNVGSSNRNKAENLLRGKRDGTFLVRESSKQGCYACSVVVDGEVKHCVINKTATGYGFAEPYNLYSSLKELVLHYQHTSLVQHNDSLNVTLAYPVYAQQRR
Sequence of PI3K-α (PIK3CA) in MDA-MB-453 cells (P42336 whole entry): as the sequence (P42336 whole entry H1047R) above, with R1047H counted along it
How it was run: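 Cells treated 3 h in serum-free MEM with 1 μg/mL insulin, 10-point 1:3 series in 0.3% DMSO, then lysed for SureFire Ultra AlphaLisa read-out. Inhibition normalized to DMSO (max) and 1 μM GDC-0032 (min); duplicate averages fitted by 4-parameter logistic for relative IC50.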

| SMILES | IC50 [1] [nM] | IC50 [2] [nM] | IC50 [3] [nM] |
| --- | --- | --- | --- |
| Cc1cc([C@@H](C)Nc2ccc(Cl)cc2C(=O)O)c2oc(-c3ccc4c(cnn4C)c3)c(C)c(=O)c2c1 [Example 259, 5-Chloro-2-[[(1R)-1-[3,6-dimethyl-2-(1-methylindazol-5-yl)-4-oxo-chromen-8-yl]ethyl]amino]benzoic acid] | < 500 | < 500 | 50 to 100 |
| Cc1cc(C(C)Nc2ccc(Cl)nc2C(=O)O)c2oc(-c3ccc4cnn(C)c4c3)cc(=O)c2c1 (single isomer, unassigned) [Example 220, 6-Chloro-3-[1-[6-methyl-2-(1-methylindazol-6-yl)-4-oxo-chromen-8-yl]ethylamino]pyridine-2-carboxylic acid] | < 500 | < 500 | < 50 |
| Cc1cc(C(C)Nc2ccccc2C(=O)O)c2oc(-c3ccc4c(c3)OC(F)(F)O4)cc(=O)c2c1 (single isomer, unassigned) [Example 64, 2-[1-[2-(2,2-Difluoro-1,3-benzodioxol-5-yl)-6-methyl-4-oxo-chromen-8-yl]ethylamino]benzoic acid] | 1000 to 5000 | < 500 | < 50 |
| Cc1cc(C(C)Nc2ccccc2C(=O)O)c2oc(-c3ccc4cc[nH]c4n3)cc(=O)c2c1 (single isomer, unassigned) [Example 4, 2-[1-[6-Methyl-4-oxo-2-(1H-pyrrolo[2,3-b]pyridin-6-yl)chromen-8-yl]ethylamino]benzoic acid] | 500 to 1000 | < 500 | < 50 |
| Cc1cc(C(C)Nc2ccccc2C(=O)O)c2oc(-c3cccc4nn(C)cc34)cc(=O)c2c1 (single isomer, unassigned) [Example 111, 2-[1-[6-Methyl-2-(2-methylindazol-4-yl)-4-oxo-chromen-8-yl]ethylamino]benzoic acid] | 500 to 1000 | < 500 | 100 to 500 |
| Cc1cc(C(C)Nc2ccccc2C(=O)O)c2oc(-c3cc4ccncc4o3)cc(=O)c2c1 (single isomer, unassigned) [Example 40, 2-[1-(2-Furo[2,3-c]pyridin-2-yl-6-methyl-4-oxo-chromen-8-yl)ethylamino]benzoic acid] | 5000 to 10000 | 1000 to 5000 | 100 to 500 |
| Cc1cc([C@@H](C)Nc2ccccc2C(=O)O)c2oc(-c3ccc4nn(Cc5ccccc5)cc4c3)c(C)c(=O)c2c1 [Example 210, 2-[[(1R)-1-[2-(2-Benzylindazol-5-yl)-3,6-dimethyl-4-oxo-chromen-8-yl]ethyl]amino]benzoic acid] | 500 to 1000 | < 500 | < 50 |
| Cc1cc(C(C)Nc2ccccc2C(=O)O)c2oc(-c3cc4cccnc4cn3)cc(=O)c2c1 (single isomer, unassigned) [Example 187, 2-[1-[6-Methyl-2-(1,7-naphthyridin-6-yl)-4-oxo-chromen-8-yl]ethylamino]benzoic acid] | 1000 to 5000 | < 500 | < 50 |
| Cc1cc(C(C)Nc2ccccc2C(=O)O)c2oc(-c3cc(Cl)c4nn(C)cc4c3)cc(=O)c2c1 (single isomer, unassigned) [Example 95, 2-[1-[2-(7-Chloro-2-methyl-indazol-5-yl)-6-methyl-4-oxo-chromen-8-yl]ethylamino]benzoic acid] | 500 to 1000 | < 500 | < 50 |
| Cc1cc([C@@H](C)Nc2cccnc2C(=O)O)c2oc(-c3nn(C)c4ccccc34)cc(=O)c2c1 [Example 232, 3-[[(1R)-1-[6-Methyl-2-(1-methylindazol-3-yl)-4-oxo-chromen-8-yl]ethyl]amino]pyridine-2-carboxylic acid] | > 10000 | 500 to 1000 | 100 to 500 |
| Cc1cc([C@@H](C)Nc2ccc(Cl)nc2C(=O)O)c2oc(-c3cc4cnccc4o3)c(C)c(=O)c2c1 [Example 214, 6-Chloro-3-[[(1R)-1-(2-furo[3,2-c]pyridin-2-yl-3,6-dimethyl-4-oxo-chromen-8-yl)ethyl]amino]pyridine-2-carboxylic acid] | < 500 | < 500 | < 50 |
| Cc1cc(C(C)Nc2ccc(Cl)nc2C(=O)O)c2oc(-c3ccc4cc[nH]c4n3)cc(=O)c2c1 (single isomer, unassigned) [Example 216, 6-Chloro-3-[1-[6-methyl-4-oxo-2-(1H-pyrrolo[2,3-b]pyridin-6-yl)chromen-8-yl]ethylamino]pyridine-2-carboxylic acid] | > 10000 | 1000 to 5000 | > 500 |
| Cc1cc(C(C)Nc2cccc(F)c2C(=O)O)c2oc(-c3nn(C)c4ccccc34)cc(=O)c2c1 (single isomer, unassigned) [Example 189, 2-Fluoro-6-[1-[6-methyl-2-(1-methylindazol-3-yl)-4-oxo-chromen-8-yl]ethylamino]benzoic acid] | 500 to 1000 | < 500 | 50 to 100 |
| Cc1cc([C@@H](C)Nc2ccccc2C(=O)O)c2oc(-c3cc4cnccc4o3)c(C(F)(F)F)c(=O)c2c1 [Example 209, 2-[[(1R)-1-[2-Furo[3,2-c]pyridin-2-yl-6-methyl-4-oxo-3-(trifluoromethyl)chromen-8-yl]ethyl]amino]benzoic acid] | 500 to 1000 | < 500 | < 50 |
| Cc1cc(C(C)Nc2ccccc2C(=O)O)c2oc(-c3ccc4ncccc4n3)cc(=O)c2c1 (single isomer, unassigned) [Example 252, 2-[1-[6-Methyl-2-(1,5-naphthyridin-2-yl)-4-oxo-chromen-8-yl]ethylamino]benzoic acid] | 1000 to 5000 | 500 to 1000 | < 50 |
| Cc1cc(C(C)Nc2ccccc2C(=O)O)c2oc(-c3ccc4nc(C)sc4n3)cc(=O)c2c1 (single isomer, unassigned) [Example 139, 2-[1-[6-Methyl-2-(2-methylthiazolo[5,4-b]pyridin-5-yl)-4-oxo-chromen-8-yl]ethylamino]benzoic acid] | 1000 to 5000 | < 500 | < 50 |
| Cc1cc(C(C)Nc2ccccc2C(=O)O)c2oc(-c3ccc4[nH]nc(C)c4c3)cc(=O)c2c1 (single isomer, unassigned) [Example 61, 2-[1-[6-Methyl-2-(3-methyl-1H-indazol-5-yl)-4-oxo-chromen-8-yl]ethylamino]benzoic acid] | 500 to 1000 | < 500 | 50 to 100 |
| Cc1cc(C(C)Nc2ccc(Cl)nc2C(=O)O)c2oc(-c3ccc4cnn(C)c4c3)cc(=O)c2c1 (single isomer, unassigned) [Example 219, 6-Chloro-3-[1-[6-methyl-2-(1-methylindazol-6-yl)-4-oxo-chromen-8-yl]ethylamino]pyridine-2-carboxylic acid] | 1000 to 5000 | 1000 to 5000 | > 500 |
| Cc1cc(C(C)Nc2ccccc2C(=O)O)c2oc(-c3ccc4cn[nH]c4c3)c(C)c(=O)c2c1 (single isomer, unassigned) [Example 120, 2-[1-[2-(1H-Indazol-6-yl)-3,6-dimethyl-4-oxo-chromen-8-yl]ethylamino]benzoic acid] | 500 to 1000 | < 500 | < 50 |
| Cc1cc(C(C)Nc2ccccc2C(=O)O)c2oc(-c3cccc4cn(C)nc34)cc(=O)c2c1 (single isomer, unassigned) [Example 116, 2-[1-[6-Methyl-2-(2-methylindazol-7-yl)-4-oxo-chromen-8-yl]ethylamino]benzoic acid] | > 10000 | < 500 | 100 to 500 |
| Cc1cc([C@@H](C)Nc2ccc(C(F)(F)F)cc2C(=O)O)c2oc(-c3ccc4nn(C)cc4c3)c(C)c(=O)c2c1 [Example 235, 2-[[(1R)-1-[3,6-Dimethyl-2-(2-methylindazol-5-yl)-4-oxo-chromen-8-yl]ethyl]amino]-5-(trifluoromethyl)benzoic acid] | 1000 to 5000 | < 500 | 50 to 100 |
| COc1ccc2cc(-c3cc(=O)c4cc(C)cc([C@@H](C)Nc5ccccc5C(=O)O)c4o3)cc(C)c2n1 [Example 248, 2-[[(1R)-1-[2-(2-Methoxy-8-methyl-6-quinolyl)-6-methyl-4-oxo-chromen-8-yl]ethyl]amino]benzoic acid] | 1000 to 5000 | 500 to 1000 | 100 to 500 |
| Cc1cc(C(C)Nc2ccccc2C(=O)O)c2oc(-c3ccc4nn(C)cc4c3)cc(=O)c2c1 (single isomer, unassigned) [Example 8, 2-[1-[6-Methyl-2-(2-methylindazol-5-yl)-4-oxo-chromen-8-yl]ethylamino]benzoic acid] | 500 to 1000 | < 500 | < 50 |
| Cc1cc(C(C)Nc2ccccc2C(=O)O)c2oc(-c3cc(C)c4nn(C)cc4c3)cc(=O)c2c1 (single isomer, unassigned) [Example 144, 2-[1-[2-(2,7-Dimethylindazol-5-yl)-6-methyl-4-oxo-chromen-8-yl]ethylamino]benzoic acid] | 1000 to 5000 | < 500 | < 50 |
| Cc1cc(C(C)Nc2cccc(F)c2C(=O)O)c2oc(-c3ccc4nn(C)cc4c3)cc(=O)c2c1 (single isomer, unassigned) [Example 171, 2-Fluoro-6-[1-[6-methyl-2-(2-methylindazol-5-yl)-4-oxo-chromen-8-yl]ethylamino]benzoic acid] | 1000 to 5000 | 1000 to 5000 | > 500 |
